Assay type in all cases: in vivo
Assay [1] has as its system crabgrass (Digitaria sanguinalis L.), DIGSA. Briefly: Test Example 2 post-emergence (foliage treatment) herbicidal activity, DIGSA. The following applies: 63 g a.i./ha. The procedure, abridged: (§1)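 Plants grown in upland soil pots were sprayed on foliage at set leaf stages (ECHCG 1.1-2.1, DIGSA 1.0-2.0, AMARE 0.1-1.5, ORYSA 1.0-2). Formulated compound was applied at predetermined active-ingredient amounts in 500 L/ha water with 0.1% (v/v) spreader. Growth control (0–100%) was visually scored 20–23 days later.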

Assay [2] deals with barnyardgrass (Echinochloa crus-galli L.), ECHCG. Briefly: Test Example 2 post-emergence (foliage treatment) herbicidal activity, ECHCG. The note with it: 63 g a.i./ha. The procedure, abridged: as §1
For assay [3], the system named is wheat (Triticum aestivum L.), TRZAX. The experiment in a line: Test Example 2 post-emergence (foliage treatment) herbicidal activity, TRZAX. The note with it: 63 g a.i./ha. The procedure, abridged: (§2)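 Each species was evaluated for growth suppression by eye, 0% matching untreated and 100% meaning death, some 20 to 23 days after a single post-emergence foliar treatment applied in 500 L/ha of water carrying 0.1% (v/v) agricultural spreader.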

Assay [4] relates to soybean (Glycine max Merr.): GLXMA. Briefly: Test Example 1 pre-emergence herbicidal activity, GLXMA. The note with it: Rate 63 g a.i./ha, visually observed 20th to 23rd day after application. A digest of the protocol: (§3)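 Pots of upland soil were sown, and one day later WP or EC formulations at set active-ingredient rates were sprayed pre-emergence in 500 L/ha water. Growth control scored visually 20–23 days after application, 0 (as untreated) to 100 (complete kill).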

Assay [5] concerns prickly sida (Sida spinosa L.): SEDSP. Briefly: Test Example 1 pre-emergence herbicidal activity, SIDSP. The following applies: Rate 63 g a.i./ha, visually observed 20th to 23rd day after application. A digest of the protocol:
as §3

The subject of assay [6] is redroot pigweed (Amaranthus retroflexus L.), AMARE. Briefly: Test Example 2 post-emergence (foliage treatment) herbicidal activity, AMARE. The note with it: 63 g a.i./ha. The procedure, abridged:
as §1

The test system of assay [7] is common cocklebur (Xanthium strumarium L.), XANST. The experiment in a line: Test Example 2 post-emergence (foliage treatment) herbicidal activity, XANST. The note with it: 63 g a.i./ha. The text has this:
Upland field soil was put into a 1/170,000 ha pot, and seeds of various plants were sown. Then, when the plants reached predetermined leaf stages {1. barnyardgrass (Echinochloa crus-galli L.), ECHCG: 1.1-2.1 leaf stage, 2. crabgrass (Digitaria sanguinalis L.), DIGSA: 1.0-2.0 leaf stage, 3. green foxtail (Setaria viridis L.), SETVI: 1.0-2.2 leaf stage, 4. redroot pigweed (Amaranthus retroflexus L.), AMARE: 0.1-1.5 leaf stage, 5. prickly sida (Sida spinosa L.), SIDSP: 0.1-0.6 leaf stage, 6. velvetleaf (Abutilon theophrasti), ABUTH: 0.1-0.6 leaf stage, 7. common cocklebur (Xanthium strumarium L.), XANST: 0.1 leaf stage, 8. rice (Oryza sativa L.), ORYSA; 1.0-2 leaf stage, 9. wheat (Triticum aestivum L.), TRZAX: 2.3-3.5 leaf stage, 10. corn (Zea mays L.), ZEAMXN 2.1-2.6 leaf stage, 11. soybean (Glycine max Merr.), GLXMA: primary leaf stage}, a wettable powder or emulsifiable concentrate having the compound of the present invention formulated in accordance with a usual formulation method, was weighed so that the active ingredient would be a predetermined amount, and diluted with water in an amount of 500 L/ha. To the diluted solution, 0.1% (v/v) of an agricultural spreader was added. The herbicide adjusted was applied by a small size sprayer for foliage treatment. On the 20th to 23rd day after the application of the herbicide, the growth of the respective plants was visually observed, and the herbicidal effects were evaluated by growth controlling degrees (%) ranging from 0 (equivalent to the untreated control) to 100 (complete kill), whereby the results shown in Table 5, were obtained. Compound Nos. in Table 5 correspond to Compound Nos. in Table 1 and 2 given hereinbefore.

The subject of assay [8] is green foxtail (Setaria viridis L.): SETVI. Briefly: Test Example 1 pre-emergence herbicidal activity, SETVI. The note with it: Rate 63 g a.i./ha, visually observed 20th to 23rd day after application. The procedure, abridged: as §3
Assay [9] relates to barnyardgrass (Echinochloa crus-galli L.): ECHCG. The experiment in a line: Test Example 1 pre-emergence herbicidal activity, ECHCG. The following applies: Rate 63 g a.i./ha, visually observed 20th to 23rd day after application. A digest of the protocol: as §3
Assay [10] deals with crabgrass (Digitaria sanguinalis L.): DIGSA. Briefly: Test Example 1 pre-emergence herbicidal activity, DIGSA. The following applies: Rate 63 g a.i./ha, visually observed 20th to 23rd day after application. A digest of the protocol:
as §3

Assay [11] deals with japanese ribbon wapato (Sagittaria pygmaea: SA GPY). Briefly: Test Example 3 water application herbicidal activity (paddy), SAGPY. The following applies: 63 g a.i./ha, water application under submerged condition, tubers planted, visually observed 14th day after application; 0 = untreated control, 100 = complete kill. A digest of the protocol: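 Compound, as diluted wettable powder or emulsifiable concentrate, was pipetted into flood water at a set active-ingredient dose. Weeds were treated at 0.5-leaf stage after sowing or tuber planting; 2-leaf rice 4 days post-transplant. Control scored visually, 0 untreated to 100 complete kill, weeds day 14, rice day 21.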

Assay [12] relates to prickly sida (Sida spinosa L.), SIDSP. The experiment in a line: Test Example 2 post-emergence (foliage treatment) herbicidal activity, SIDSP. The note with it: 63 g a.i./ha. A digest of the protocol: as §2
In assay [13] the test system is corn (Zea mays L.), ZEAMX. The experiment in a line: Test Example 2 post-emergence (foliage treatment) herbicidal activity, ZEAMX. The following applies: 63 g a.i./ha. The procedure, abridged:
as §2

Assay [14] deals with green foxtail (Setaria viridis L.), SETVI. The experiment in a line: Test Example 2 post-emergence (foliage treatment) herbicidal activity, SETVI. The following applies: 63 g a.i./ha. The procedure, abridged: as §2
Assay [15] concerns rice (Oryza sativa L.): ORYSA. Briefly: Test Example 1 pre-emergence herbicidal activity, ORYSA. The note with it: Rate 63 g a.i./ha, visually observed 20th to 23rd day after application. The procedure, abridged: as §3

For `COc1c(Cl)cc(F)c(-c2nn(C)c(OC(F)F)c2Cl)c1N(C=O)CC(=O)c1ccccc1` [Compound 1-12], in assay [1], the “growth controlling degree, DIGSP” value worked out at 30%. In addition, the “growth controlling degree, ECHCO” value in [2] is recorded as 70%. Further, the “growth controlling degree, TRZAX” value in assay [3] is 20%. For the same compound, the “Pre-emergence Herbicidal Activity GLXMA (growth controlling degree)” value in [4] is 40%. The “Pre-emergence Herbicidal Activity SIDSP (growth controlling degree)” value in assay [5] is listed as 100%. Further, the “growth controlling degree, AMARE” value in [6] is 100%. For the same compound, the “growth controlling degree, XANST” value in assay [7] was determined as 50%. In assay [8], the “Pre-emergence Herbicidal Activity SETVI (growth controlling degree)” value was found to be 95%. In assay [9], the “Pre-emergence Herbicidal Activity ECHCG (growth controlling degree)” value stood at 70%. In [10], the “Pre-emergence Herbicidal Activity DIGSP (growth controlling degree)” value amounted to 30%. Moreover, the “growth controlling degrees (%) SAGPY” value in assay [11] is on record as 30%. Besides, the “growth controlling degree, SIDSP” value in assay [12] was determined as 100%. In assay [13], the “growth controlling degree, ZEAMX” value was found to be 10%. In assay [14], the “growth controlling degree, SETVI” value stood at 95%. For the same compound, the “Pre-emergence Herbicidal Activity ORYSA (growth controlling degree)” value in assay [15] came to 40%.

The values are drawn from patent US20050245399A1, “Pyrazole derivatives as herbicidal compositions containing them” (ISHIHARA SANGYO KAISHA, LTD., priority 2004, published 2005).
